Measurements: ChEMBL document CHEMBL1122598, “A cannabinoid derived prototypical analgesic” (1984)

Legend:
Format in all cases: functional
Mus musculus [1] = test: Analgesic activity was determined by mouse phenylbenzoquinone writhing test(PBQ) at a dose 56 mg/kg subcutaneous administration.; details: sc
Mus musculus [2] = test: Analgesic activity was determined by Mouse phenylbenzoquinone writhing test(PBQ) at a dose of 100 mg/kg subcutaneous administration.; details: sc
Mus musculus [3] = test: Analgesic activity was determined by Mouse phenylbenzoquinone writhing test(PBQ) at a dose of 10 mg/kg subcutaneous administration.; details: sc
Mus musculus [4] = test: Analgesic activity was determined by Mouse phenylbenzoquinone writhing test(PBQ) at a dose of 32 mg/kg subcutaneous administration.; details: sc
Mus musculus [5] = test: Analgesic activity was determined by Mouse phenylbenzoquinone writhing test(PBQ) at a dose of 56 mg/kg subcutaneous administration.; details: sc
Mus musculus [6] = species: Mus musculus; test: Analgesic activity was determined by mouse tail flick (TF), 1 hour postdose.
Mus musculus [7] = species: Mus musculus; test: Analgesic activity was determined by mouse hot plate (HP), 1 hour postdose.
Rattus norvegicus [8] = species: Rattus norvegicus; test: Analgesic activity was determined by rat tail clamp assay(RTC), 2 hour postdose.
Rattus norvegicus [9] = species: Rattus norvegicus; test: Analgesic activity was determined by rat flinch jump (FJ), 2 hour postdose.
Mus musculus [10] = species: Mus musculus; test: Analgesic activity was determined by mouse phenylbenzoquinone (PBQ) induced writhing, 1 hour postdose.

Compound	inhibition in vivo at 56 mg/kg (Mus musculus [1])	inhibition in vivo at 100 mg/kg (Mus musculus [2])	inhibition in vivo at 10 mg/kg (Mus musculus [3])	inhibition in vivo at 32 mg/kg (Mus musculus [4])	inhibition in vivo at 56 mg/kg (Mus musculus [5])	MPE50 (Mus musculus [6])	MPE50 (Mus musculus [7])	MPE50 (Rattus norvegicus [8])	MPE50 (Rattus norvegicus [9])	MPE50 (Mus musculus [10])
CCCCCCC(C)(C)c1ccc(C(C)CC(C)O)c(O)c1 (stereo unspecified)	55%	53%	27%	52%	50%					
CCCCCCC(C)(C)c1ccc([C@H]2CCC[C@H](O)C2)c(O)c1						55.7 mg/kg	>56 mg/kg	12.3 mg/kg	17.8 mg/kg	3.8 mg/kg
CCCCCCC(C)(C)c1ccc([C@H]2CCCC(=O)C2)c(O)c1						15.3 mg/kg	>32 mg/kg	26.1 mg/kg	11.5 mg/kg	4.5 mg/kg
CCCCCCC(C)(C)c1ccc([C@H]2CCC[C@@H](O)C2)c(O)c1						4.4 mg/kg	8.1 mg/kg	4.7 mg/kg	4.9 mg/kg	1 mg/kg
CCCCCCC(C)(C)c1ccc(C(C)CC(C)=O)c(O)c1 (stereo unspecified)	0%									
CCCCCc1cc(O)c2c(c1)OC(C)(C)[C@@H]1CC[C@@H](O)C[C@@H]21						9.1 mg/kg	34.4 mg/kg	7 mg/kg	36.4 mg/kg	0.63 mg/kg
CCCCCc1cc(O)c2c(c1)OC(C)(C)[C@@H]1CCC(C)=C[C@@H]21 [DRONABINOL]						55 mg/kg	>178 mg/kg	29.1 mg/kg	83.1 mg/kg	5.9 mg/kg
CN1CC[C@]23c4c5ccc(O)c4O[C@H]2[C@@H](O)C=C[C@H]3[C@H]1C5 [MORPHINE]						5.7 mg/kg	4.2 mg/kg	4.8 mg/kg	10.3 mg/kg	1.8 mg/kg
